Experimental data published in US20260001914A1, “MACROCYCLIC PEPTIDES TARGETING KRAS” (Merck Sharp & Dohme LLC, priority 2022, published 2026).
Where a SMILES comes first, the peptide text is derived from it. Bridges are numbered along the chain shown (N, C = ends). [ ]: non-standard residue; d: D form. Trp(1-Me) = Cn1cc(C[C@H](N)C(=O)O)c2ccccc21; 1Nal = N[C@@H](Cc1cccc2ccccc12)C(=O)O; NMeF = CN[C@@H](Cc1ccccc1)C(=O)O; Ahp(2) = CCCCC[C@H](N)C(=O)O; hLys = NCCCCC[C@H](N)C(=O)O; Nle = CCCC[C@H](N)C(=O)O

Target: KRAS-G12D protein (Homo sapiens, UniProt P01116, G12D)
Experiment: SOS-mediated nucleotide exchange assay (BODIPY-GDP / Tb-streptavidin TR-FRET)
Type: biochemical

Chain of KRAS-G12D protein (P01116 1-188 isoform P01116-2 G12D): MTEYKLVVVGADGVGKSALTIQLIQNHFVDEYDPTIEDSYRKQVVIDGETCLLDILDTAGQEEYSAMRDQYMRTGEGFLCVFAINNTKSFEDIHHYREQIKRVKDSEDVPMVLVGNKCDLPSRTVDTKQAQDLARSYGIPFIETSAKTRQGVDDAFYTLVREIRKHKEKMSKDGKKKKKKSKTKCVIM

Row | SMILES | EC50
1 | CCCCC[C@@H]1NC(=O)[C@H](Cc2ccc(O)cc2)NC(=O)[C@H](CC(C)C)NC(=O)[C@H](Cc2ccc(O)cc2)NC(=O)[C@@H](CCCNC(=N)N)NC(=O)[C@H](Cc2ccccc2)NC(=O)CSC[C@@H](C(N)=O)NC(=O)[C@H](Cc2ccccc2)N(C)C1=O [compound 4, cyclo(F-dR-Y-L-Y-Ahp-NMeF-Cl-ClAc)] | 3280 nM
2 | CCCCC[C@@H]1NC(=O)[C@H](Cc2ccc(O)cc2)NC(=O)[C@H](CC(C)C)NC(=O)[C@H](Cc2ccc(O)cc2)NC(=O)[C@H](CCCNC(=N)N)NC(=O)[C@H](Cc2cn(C)c3ccccc23)NC(=O)CSC[C@@H](C(N)=O)NC(=O)[C@H](Cc2ccccc2)N(C)C1=O [compound 6, cyclo(TrplMe-R-Y-L-Y-Ahp-NMeF-Cl-ClAc)] ({CH2CO}-[Trp(1-Me)]RYLY[Ahp(2)][NMeF]C-NH2; thioether N-8) | 288 nM
3 | CCCCC[C@@H]1NC(=O)[C@H](Cc2ccc(O)cc2)NC(=O)[C@H](CC(C)C)NC(=O)[C@H](Cc2ccc(O)cc2)NC(=O)[C@H](CCCNC(=N)N)NC(=O)[C@H](Cc2cccc3ccccc23)NC(=O)CSC[C@@H](C(N)=O)NC(=O)[C@H](Cc2ccccc2)N(C)C1=O [compound 7, cyclo(INal-R-Y-L-Y-Ahp-NMeF-Cl-ClAc)] ({CH2CO}-[1Nal]RYLY[Ahp(2)][NMeF]C-NH2; thioether N-8) | 1630 nM
4 | CCCCC[C@@H]1NC(=O)[C@H](Cc2ccc(O)cc2)NC(=O)[C@H](CCCC)NC(=O)[C@H](Cc2ccc(O)cc2)NC(=O)[C@H](CCCNC(=N)N)NC(=O)[C@H](Cc2ccccc2)NC(=O)CSC[C@@H](C(N)=O)NC(=O)[C@H](Cc2ccccc2)N(C)C1=O [compound 12, cyclo(F-R-Y-Nle-Y-Ahp-NMeF-Cl-ClAc)] ({CH2CO}-FRY[Nle]Y[Ahp(2)][NMeF]C-NH2; thioether N-8) | 1190 nM
5 | CC(C)C[C@@H]1NC(=O)[C@H](Cc2ccc(O)cc2)NC(=O)[C@H](CCCNC(=N)N)NC(=O)[C@H](Cc2ccccc2)NC(=O)CSC[C@@H](C(N)=O)NC(=O)[C@H](Cc2ccccc2)N(C)C(=O)[C@H](CCCCCN)NC(=O)[C@H](Cc2ccc(O)cc2)NC1=O [compound 13, cyclo(F-R-Y-L-Y-hK-NMcF-Cl-ClAc)] ({CH2CO}-FRYLY[hLys][NMeF]C-NH2; thioether N-8) | 5630 nM
6 | CCC[C@@H]1NC(=O)[C@H](Cc2ccc(O)cc2)NC(=O)[C@H](CC(C)C)NC(=O)[C@H](Cc2ccc(O)cc2)NC(=O)[C@H](CCCNC(=N)N)NC(=O)[C@H](Cc2ccccc2)NC(=O)CSC[C@@H](C(N)=O)NC(=O)[C@H](Cc2ccccc2)N(C)C1=O [compound 16, cyclo(F-R-Y-L-Y-Nva-NMeF-Cl-ClAc)] | 3620 nM
7 | CCCC[C@@H]1NC(=O)[C@H](Cc2ccc(O)cc2)NC(=O)[C@H](CC(C)C)NC(=O)[C@H](Cc2ccc(O)cc2)NC(=O)[C@H](CCCNC(=N)N)NC(=O)[C@H](Cc2cccc3ccccc23)NC(=O)CSC[C@H](C(N)=O)NC(=O)[C@H](Cc2ccccc2)N(C)C1=O [compound 17, cyclo(INal-R-Y-L-Y-Nle-NMeF-dCl-ClAc)] ({CH2CO}-[1Nal]RYLY[Nle][NMeF][dC]-NH2; thioether N-8) | 1050 nM
8 | CCCC[C@@H]1NC(=O)[C@H](Cc2ccc(O)cc2)NC(=O)[C@H](CC(C)C)NC(=O)[C@H](Cc2ccc(O)cc2)NC(=O)[C@H](CCCNC(=N)N)NC(=O)[C@H](Cc2ccccc2)NC(=O)CSC[C@H](C(N)=O)NC(=O)[C@H](Cc2ccccc2)N(C)C1=O [compound 18, cyclo(F-R-Y-L-Y-Nle-NMeF-dCl-ClAc)] | 825 nM
9 | CCCC[C@@H]1NC(=O)[C@H](CCCCN)NC(=O)[C@H](CCCNC(=N)N)NC(=O)[C@H](Cc2cccc3ccccc23)NC(=O)CSC[C@H](C(N)=O)NC(=O)[C@H](Cc2ccccc2)N(C)C(=O)[C@H](CCCC)NC(=O)[C@H](Cc2ccc(O)cc2)NC1=O [compound 19, cyclo(INal-R-K-Nle-Y-Nle-NMeF-dCl-ClAc)] | 1280 nM
10 | CCC[C@@H]1NC(=O)[C@H](Cc2ccc(O)cc2)NC(=O)[C@H](CC(C)C)NC(=O)[C@H](Cc2ccc(O)cc2)NC(=O)[C@H](CCCNC(=N)N)NC(=O)[C@H](Cc2ccccc2)NC(=O)CSC[C@H](C(N)=O)NC(=O)[C@H](Cc2ccccc2)N(C)C1=O [compound 21, cyclo(F-R-Y-L-Y-Nva-NMeF-dCl-ClAc)] | 6420 nM
